Literature values, collected in article PMC12067266 (Proceedings of the National Academy of Sciences of the …, 2025).

Test system: KCa3.1
Conditions: read-out: KCa3.1 IC50; ref [21]–[23], [49], [50]

| SMILES | IC50 |
| --- | --- |
| NC(=O)C(c1ccccc1)(c1ccc(F)cc1)c1ccc(F)cc1 [Senicapoc] | 11 nM |
| O=C1CSc2ccccc2N1Cc1cccc(C(F)(F)F)c1 [NS6180] | 9 nM |
